This passage reports inhibition and viability results from ChEMBL document CHEMBL3132855, “Synthesis and antiviral evaluation of 4-(1,2,3-triazol-1-yl)thymidines” (Medchemcomm, 2014).

Active and inactive are the calls of the source. No cut-off for these calls is given here.

One series concerns Human immunodeficiency virus 1. The series is described as follows: Antiviral activity against HIV1 3B infected in human CEM-SS cells assessed as inhibition of virus-induced cytopathic effect at 10 uM after 6 days by MTS assay. Format: functional. Particulars: Human immunodeficiency virus 1, 3B, 144 h. On the technique in general: Cytopathic effects are the visible damage that an infection or toxin causes in cultured cells.
Consider `Cc1cn([C@H]2C[C@H](O)[C@](CO)(n3cc(CSc4ccccc4)nn3)O2)c(=O)[nH]c1=O`, for which the inhibition (as a rule, the change of the read-out against control, counted positive when it falls) at 10 µM worked out at 20%.
The same measure, in the same setting: in the case of `Cc1cn([C@H]2C[C@H](O)[C@](CO)(n3cc(C(O)c4ccccc4)nn3)O2)c(=O)[nH]c1=O` (some centres not stated) it was 0%; in that of `COc1ccc2cc(-c3cn([C@]4(CO)O[C@@H](n5cc(C)c(=O)[nH]c5=O)C[C@@H]4O)nn3)ccc2c1`, 18%.
Turning to `Cc1cn([C@H]2C[C@H](O)[C@](CO)(n3cc(C(C)O)nn3)O2)c(=O)[nH]c1=O` (some centres not stated), the inhibition at 10 µM was determined as 8%.
In the case of `Cc1ccc(-c2cn([C@]3(CO)O[C@@H](n4cc(C)c(=O)[nH]c4=O)C[C@@H]3O)nn2)cc1`, the inhibition at 10 µM came to 0%.
For the molecule `CCOC(=O)C(Cc1ccc(OCc2cn([C@]3(CO)O[C@@H](n4cc(C)c(=O)[nH]c4=O)C[C@@H]3O)nn2)cc1)NC(=O)OC(C)(C)C` (some centres not stated), the inhibition at 10 µM amounted to 0%.
Same read-out and setting: the value for `Cc1cn([C@H]2C[C@H](O)[C@](CO)(n3cc(-c4ccc(-c5ccccc5)cc4)nn3)O2)c(=O)[nH]c1=O` was 31%.
On to `Cc1cn([C@H]2C[C@H](O)[C@](CO)(n3cc(-c4ccccc4)nn3)O2)c(=O)[nH]c1=O`, for which the inhibition at 10 µM was 62%.
On to `COc1ccc(-c2cn([C@]3(CO)O[C@@H](n4cc(C)c(=O)[nH]c4=O)C[C@@H]3O)nn2)cc1`, for which the inhibition at 10 µM was 0%.
Take `Cc1cn([C@H]2C[C@H](O)[C@](CO)(n3cc(-c4ccc(N(C)C)cc4)nn3)O2)c(=O)[nH]c1=O`: the inhibition at 10 µM was determined as 12%.
Consider `Cc1cn([C@H]2C[C@H](O)[C@](CO)(n3cc(-c4ccc(F)cc4)nn3)O2)c(=O)[nH]c1=O`, for which the inhibition at 10 µM was 0%.
For `Cc1cn([C@H]2C[C@H](O)[C@](CO)(n3cc(C4CCCCC4)nn3)O2)c(=O)[nH]c1=O`, the inhibition at 10 µM amounted to 0%.

In another series the test system is Influenza A virus. The series is described as follows: Antiviral activity against Influenza A/WSN/33 virus infected in human A549 cells assessed as inhibition of virus-induced cytopathic effect at 10 uM after 5 days by neutral red assay. Particulars: A/WSN/1933(H1N1), A549, 120 h. It is filed as functional.
As for `Cc1cn([C@H]2C[C@H](O)[C@](CO)(n3cc(CSc4ccccc4)nn3)O2)c(=O)[nH]c1=O`, the inhibition at 10 µM is 3.3%.
The same measure, in the same setting: the value for `Cc1cn([C@H]2C[C@H](O)[C@](CO)(n3cc(C(O)c4ccccc4)nn3)O2)c(=O)[nH]c1=O` (some centres not stated) was 5%.
`COc1ccc2cc(-c3cn([C@]4(CO)O[C@@H](n5cc(C)c(=O)[nH]c5=O)C[C@@H]4O)nn3)ccc2c1`: the inhibition at 10 µM came out at 0%.
With `Cc1cn([C@H]2C[C@H](O)[C@](CO)(n3cc(C(C)O)nn3)O2)c(=O)[nH]c1=O` (some centres not stated), the inhibition at 10 µM was determined as 0%.
As for `Cc1ccc(-c2cn([C@]3(CO)O[C@@H](n4cc(C)c(=O)[nH]c4=O)C[C@@H]3O)nn2)cc1`, the inhibition at 10 µM was determined as 0%.
In the case of `CCOC(=O)C(Cc1ccc(OCc2cn([C@]3(CO)O[C@@H](n4cc(C)c(=O)[nH]c4=O)C[C@@H]3O)nn2)cc1)NC(=O)OC(C)(C)C` (some centres not stated), the inhibition at 10 µM came out at 0%.
On to `Cc1cn([C@H]2C[C@H](O)[C@](CO)(n3cc(-c4ccc(-c5ccccc5)cc4)nn3)O2)c(=O)[nH]c1=O`, for which the inhibition at 10 µM was 1.7%.
The same measure, in the same setting: the value for `Cc1cn([C@H]2C[C@H](O)[C@](CO)(n3cc(-c4ccccc4)nn3)O2)c(=O)[nH]c1=O` was 0%; that for `COc1ccc(-c2cn([C@]3(CO)O[C@@H](n4cc(C)c(=O)[nH]c4=O)C[C@@H]3O)nn2)cc1` was 19%; that for `Cc1cn([C@H]2C[C@H](O)[C@](CO)(n3cc(-c4ccc(N(C)C)cc4)nn3)O2)c(=O)[nH]c1=O` was 21%.
As for `Cc1cn([C@H]2C[C@H](O)[C@](CO)(n3cc(-c4ccc(F)cc4)nn3)O2)c(=O)[nH]c1=O`, the inhibition at 10 µM amounted to 0%.
For the molecule `Cc1cn([C@H]2C[C@H](O)[C@](CO)(n3cc(C4CCCCC4)nn3)O2)c(=O)[nH]c1=O`, the inhibition at 10 µM worked out at 2.2%.

System in the next series: not listed separately
Put plainly: Cytotoxicity against human CEM-SS cells assessed as cell viability at 10 uM after 6 days by MTS assay. Format: cell-based. Particulars: read-out: Activity.
Consider `Cc1cn([C@H]2C[C@H](O)[C@](CO)(n3cc(CSc4ccccc4)nn3)O2)c(=O)[nH]c1=O`, for which the viability at 144 h, 10 µM amounted to 99%.
Take `Cc1cn([C@H]2C[C@H](O)[C@](CO)(n3cc(C(O)c4ccccc4)nn3)O2)c(=O)[nH]c1=O` (some centres not stated): the viability at 144 h, 10 µM was found to be 100%.
The same measure, in the same setting: the value for `COc1ccc2cc(-c3cn([C@]4(CO)O[C@@H](n5cc(C)c(=O)[nH]c5=O)C[C@@H]4O)nn3)ccc2c1` was 95%.
`Cc1cn([C@H]2C[C@H](O)[C@](CO)(n3cc(C(C)O)nn3)O2)c(=O)[nH]c1=O` (some centres not stated): the viability at 144 h, 10 µM was 100%.
Take `Cc1ccc(-c2cn([C@]3(CO)O[C@@H](n4cc(C)c(=O)[nH]c4=O)C[C@@H]3O)nn2)cc1`: the viability at 144 h, 10 µM was 99%.
On to `CCOC(=O)C(Cc1ccc(OCc2cn([C@]3(CO)O[C@@H](n4cc(C)c(=O)[nH]c4=O)C[C@@H]3O)nn2)cc1)NC(=O)OC(C)(C)C` (some centres not stated), for which the viability at 144 h, 10 µM was 97%.
Same read-out and setting: the value for `Cc1cn([C@H]2C[C@H](O)[C@](CO)(n3cc(-c4ccc(-c5ccccc5)cc4)nn3)O2)c(=O)[nH]c1=O` was 80%; that for `Cc1cn([C@H]2C[C@H](O)[C@](CO)(n3cc(-c4ccccc4)nn3)O2)c(=O)[nH]c1=O` was 94%.
As for `COc1ccc(-c2cn([C@]3(CO)O[C@@H](n4cc(C)c(=O)[nH]c4=O)C[C@@H]3O)nn2)cc1`, the viability at 144 h, 10 µM was 84%.
As to `Cc1cn([C@H]2C[C@H](O)[C@](CO)(n3cc(-c4ccc(N(C)C)cc4)nn3)O2)c(=O)[nH]c1=O`, the viability at 144 h, 10 µM came out at 100%.
Consider `Cc1cn([C@H]2C[C@H](O)[C@](CO)(n3cc(-c4ccc(F)cc4)nn3)O2)c(=O)[nH]c1=O`, for which the viability at 144 h, 10 µM was determined as 95%.
On to `Cc1cn([C@H]2C[C@H](O)[C@](CO)(n3cc(C4CCCCC4)nn3)O2)c(=O)[nH]c1=O`, for which the viability at 144 h, 10 µM turned out to be 96%.

The next series relates to West Nile virus. The series is described as follows: Antiviral activity against West Nile virus infected in baby hamster BHK-WII RepRen1B cells assessed as inhibition of viral replication at 10 uM after 3 days by luciferase assay.
Conditions: not given
It is filed as functional, organism-based.
In the case of `Cc1cn([C@H]2C[C@H](O)[C@](CO)(n3cc(CSc4ccccc4)nn3)O2)c(=O)[nH]c1=O`, the inhibition entry was “inactive”.
As to `Cc1cn([C@H]2C[C@H](O)[C@](CO)(n3cc(C(O)c4ccccc4)nn3)O2)c(=O)[nH]c1=O` (some centres not stated), the inhibition result was “inactive”.
Regarding `COc1ccc2cc(-c3cn([C@]4(CO)O[C@@H](n5cc(C)c(=O)[nH]c5=O)C[C@@H]4O)nn3)ccc2c1`, the inhibition result was “inactive”.
For the molecule `Cc1cn([C@H]2C[C@H](O)[C@](CO)(n3cc(C(C)O)nn3)O2)c(=O)[nH]c1=O` (some centres not stated), the inhibition entry is “inactive”.
On the same count and under the same terms, the value for `Cc1ccc(-c2cn([C@]3(CO)O[C@@H](n4cc(C)c(=O)[nH]c4=O)C[C@@H]3O)nn2)cc1` was “inactive”; that for `CCOC(=O)C(Cc1ccc(OCc2cn([C@]3(CO)O[C@@H](n4cc(C)c(=O)[nH]c4=O)C[C@@H]3O)nn2)cc1)NC(=O)OC(C)(C)C` (some centres not stated) was “inactive”; that for `Cc1cn([C@H]2C[C@H](O)[C@](CO)(n3cc(-c4ccc(-c5ccccc5)cc4)nn3)O2)c(=O)[nH]c1=O` was “inactive”.
On to `Cc1cn([C@H]2C[C@H](O)[C@](CO)(n3cc(-c4ccccc4)nn3)O2)c(=O)[nH]c1=O`, for which the inhibition entry was “inactive”.
For the molecule `COc1ccc(-c2cn([C@]3(CO)O[C@@H](n4cc(C)c(=O)[nH]c4=O)C[C@@H]3O)nn2)cc1`, the inhibition entry was “inactive”.
`Cc1cn([C@H]2C[C@H](O)[C@](CO)(n3cc(-c4ccc(N(C)C)cc4)nn3)O2)c(=O)[nH]c1=O`: the inhibition result was “inactive”.
Consider `Cc1cn([C@H]2C[C@H](O)[C@](CO)(n3cc(-c4ccc(F)cc4)nn3)O2)c(=O)[nH]c1=O`, for which the inhibition result was “inactive”.
For `Cc1cn([C@H]2C[C@H](O)[C@](CO)(n3cc(C4CCCCC4)nn3)O2)c(=O)[nH]c1=O`, the inhibition entry was “inactive”.

The test system of a further series is Influenza A virus. The series is described as follows: Antiviral activity against Influenza A/WSN/33 virus infected in MDCK cells assessed as inhibition of virus-induced cytopathic effect at 10 uM after 5 days by neutral red assay. Particulars: A/WSN/1933(H1N1), 120 h. Format: functional.
For the molecule `COc1ccc(-c2cn([C@]3(CO)O[C@@H](n4cc(C)c(=O)[nH]c4=O)C[C@@H]3O)nn2)cc1`, the inhibition at 10 µM amounted to 1%.
Consider `Cc1cn([C@H]2C[C@H](O)[C@](CO)(n3cc(-c4ccc(N(C)C)cc4)nn3)O2)c(=O)[nH]c1=O`, for which the inhibition at 10 µM amounted to 1%.

The next series deals with Hepatitis C virus. Put plainly: Antiviral activity against HCV1b infected in human HuH-7 cells assessed as inhibition of viral replication at 10 uM after 3 days by luciferase assay. It is filed as functional, organism-based. The note with it: Hepacivirus hominis, genotype 1b.
In the case of `Cc1cn([C@H]2C[C@H](O)[C@](CO)(n3cc(CSc4ccccc4)nn3)O2)c(=O)[nH]c1=O`, the inhibition result was “inactive”.
Consider `Cc1cn([C@H]2C[C@H](O)[C@](CO)(n3cc(C(O)c4ccccc4)nn3)O2)c(=O)[nH]c1=O` (some centres not stated), for which the inhibition entry is “inactive”.
As for `COc1ccc2cc(-c3cn([C@]4(CO)O[C@@H](n5cc(C)c(=O)[nH]c5=O)C[C@@H]4O)nn3)ccc2c1`, the inhibition entry is “inactive”.
In the case of `Cc1cn([C@H]2C[C@H](O)[C@](CO)(n3cc(C(C)O)nn3)O2)c(=O)[nH]c1=O` (some centres not stated), the inhibition entry was “inactive”.
Consider `Cc1ccc(-c2cn([C@]3(CO)O[C@@H](n4cc(C)c(=O)[nH]c4=O)C[C@@H]3O)nn2)cc1`, for which the inhibition entry is “inactive”.
For the molecule `CCOC(=O)C(Cc1ccc(OCc2cn([C@]3(CO)O[C@@H](n4cc(C)c(=O)[nH]c4=O)C[C@@H]3O)nn2)cc1)NC(=O)OC(C)(C)C` (some centres not stated), the inhibition entry was “inactive”.
Same read-out and setting: the value for `Cc1cn([C@H]2C[C@H](O)[C@](CO)(n3cc(-c4ccc(-c5ccccc5)cc4)nn3)O2)c(=O)[nH]c1=O` was “inactive”; that for `Cc1cn([C@H]2C[C@H](O)[C@](CO)(n3cc(-c4ccccc4)nn3)O2)c(=O)[nH]c1=O` was “inactive”.
The same measure, in the same setting: the value for `COc1ccc(-c2cn([C@]3(CO)O[C@@H](n4cc(C)c(=O)[nH]c4=O)C[C@@H]3O)nn2)cc1` was “inactive”.
For the molecule `Cc1cn([C@H]2C[C@H](O)[C@](CO)(n3cc(-c4ccc(N(C)C)cc4)nn3)O2)c(=O)[nH]c1=O`, the inhibition entry was “inactive”.
`Cc1cn([C@H]2C[C@H](O)[C@](CO)(n3cc(-c4ccc(F)cc4)nn3)O2)c(=O)[nH]c1=O`: the inhibition entry is “inactive”.
As to `Cc1cn([C@H]2C[C@H](O)[C@](CO)(n3cc(C4CCCCC4)nn3)O2)c(=O)[nH]c1=O`, the inhibition entry is “inactive”.
